Data on 16 compounds can be found in PubChem BioAssay (NCI).

The structures appear in SMILES notation.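 1) Cells in 96-well plates. 2) Compound, 48 h, 5 concentrations. 3) Linear interpolation between surrounding doses. 4) Unreached endpoint = highest concentration. Abbreviation: GI50, concentration required for 50% inhibition of growth. TGI denotes the concentration required for complete inhibition of growth.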

Some test systems named below: BT-549 breast; MDA-N; DU-145 prostate; MDA-MB-231 breast; 786-0 renal; MCF7 breast; KM20L2 colon; M19-MEL melanoma; HCC-2998 colon; DMS 114 small cell lung; HOP-18 NSCLC.
Holding throughout (assay): growth of human tumour cells (NCI), 48 h

As for `CCOC(=O)c1c(CN2CCCC2)n(-c2ccccc2)c2cc(Br)c(OC)cc12`, the TGI in the assay on BT-549 breast is 58.1 µM; in the assay with MDA-N, above 100 µM; in the assay on DU-145 prostate, 69.2 µM; with MDA-MB-231 breast, 70.4 µM; in the assay with 786-0 renal, 32 µM; in the assay with MCF7 breast, 23.4 µM.
In the case of `Nc1nc(=O)n(CC(O)CO)s1` (stereo not given), the TGI in the assay on KM20L2 colon, in the assay with M19-MEL melanoma, in the assay with HCC-2998 colon, in the assay with DMS 114 small cell lung and in the assay with HOP-18 NSCLC was above 100 µM throughout.
Consider `CNC(=O)Nc1ccccc1`, for which the TGI with BT-549 breast, in the assay on MDA-N, with DU-145 prostate, in the assay on MDA-MB-231 breast, in the assay with 786-0 renal and in the assay with HCC-2998 colon was above 100 µM throughout. Also, in the assay on MCF7 breast, the TGI was above 100 µM.
Take `COc1cc2c(cc1OCCCN1CCN(c3ncnc4ccccc34)CC1)N=CC1CCCN1C2=O` (stereo not given): the GI50 with BT-549 breast is 0.0248 µM; in the assay on DU-145 prostate, 0.0278 µM; with MDA-MB-231 breast it was 0.0205 µM; in the assay with HCC-2998 colon, 0.019 µM; with MCF7 breast, 0.0189 µM. Also, the TGI in the assay with BT-549 breast was 0.0895 µM; in the assay on DU-145 prostate, 0.311 µM; in the assay on MDA-MB-231 breast, 0.0736 µM; in the assay on HCC-2998 colon, 0.0381 µM; in the assay with MCF7 breast, 1.02 µM.
On to `O=c1/c(=C/c2ccc([N+](=O)[O-])o2)sc2n1[C@@H](c1ccc3c(c1)OCO3)C=C(c1cc(F)c(Cl)cc1Cl)N=2`, for which the TGI with BT-549 breast is 35.1 µM; in the assay on MDA-N, 43.3 µM; in the assay with DU-145 prostate, 79.8 µM; in the assay with MDA-MB-231 breast it was 50.4 µM; in the assay with 786-0 renal, 42.1 µM; with HCC-2998 colon, 28.7 µM. In addition, the TGI in the assay with MCF7 breast stood at 32.4 µM.
As for `N#C[S-].[Ce+3].c1cnc2c(c1)ccc1cccnc12.c1cnc2c(c1)ccc1cccnc12.c1cnc2c(c1)ccc1cccnc12`, the GI50 is 1.33 µM in the assay on KM20L2 colon, 0.555 µM in the assay with M19-MEL melanoma, 1.64 µM in the assay with DMS 114 small cell lung and 1.2 µM with HOP-18 NSCLC. Further, the TGI in the assay on KM20L2 colon is 14.7 µM; with M19-MEL melanoma, 3.31 µM; in the assay on 786-0 renal, 11.1 µM; in the assay with HCC-2998 colon, 18.9 µM; in the assay with DMS 114 small cell lung it was 4.52 µM; with HOP-18 NSCLC it was 7.53 µM.
For the compound `O=C(NNC(=O)c1nsc2ccccc12)c1ccc(Cl)cc1`, the TGI in the assay with KM20L2 colon is 53.8 µM; with M19-MEL melanoma, 39.1 µM; in the assay with HCC-2998 colon, 31 µM; in the assay with HOP-18 NSCLC, 27.4 µM.
As to `NC(CC(=O)O)(Cc1ccccc1)C(=O)O` (stereo not given), the TGI with BT-549 breast, in the assay on MDA-N, in the assay on DU-145 prostate, with MDA-MB-231 breast, in the assay with 786-0 renal and in the assay on MCF7 breast was above 100 µM each time.
Consider `C[N+](C)(CCO)CCN1c2ccccc2Sc2ccccc21`, for which the TGI in the assay on MDA-N, in the assay on DU-145 prostate, with MDA-MB-231 breast, in the assay on HCC-2998 colon and in the assay on MCF7 breast was above 10 µM in each case.
On to `Fc1c(F)c(C(F)(F)F)c(F)c(F)c1N/N=C/c1cn(Cc2ccccc2)c2ccccc12`, for which the TGI in the assay on BT-549 breast was 80.7 µM; with DU-145 prostate, above 100 µM; in the assay with MDA-MB-231 breast, 45.6 µM; with 786-0 renal it was 66.8 µM; with MCF7 breast it was 69.5 µM.
As to `COc1ccc(C)cc1Nc1nnc(-c2ccc(N)cc2)s1`, the TGI with BT-549 breast, in the assay with MDA-N, in the assay with DU-145 prostate, in the assay on 786-0 renal, with HCC-2998 colon and with MCF7 breast was above 100 µM throughout.
Turning to `COc1ccc2c(c1)CC[C@@H]1[C@@H]2CC[C@]2(C)C(=O)/C(=C/c3ccc(O)c(OC)c3)C[C@@H]12`, the TGI in the assay on MDA-N was above 100 µM; with DU-145 prostate it was above 100 µM; in the assay on MDA-MB-231 breast it was above 100 µM; in the assay on HCC-2998 colon it was 75.5 µM; in the assay with MCF7 breast, above 100 µM.
For `Cn1c(=O)c2c(nc(NCCNc3nc4c(c(=O)n(C)c(=O)n4C)n3C)n2C)n(C)c1=O`, the TGI in the assay on BT-549 breast, in the assay on MDA-N, in the assay with DU-145 prostate, in the assay on MDA-MB-231 breast, in the assay on 786-0 renal and in the assay with HCC-2998 colon was above 100 µM in each case.
Regarding `O=C(COc1ccc(Cl)cc1Cl)N/N=C/C=C/c1ccc([N+](=O)[O-])o1`, the TGI in the assay with BT-549 breast was 58 µM; in the assay with MDA-N, above 100 µM; in the assay on MDA-MB-231 breast it was 95.6 µM; in the assay on 786-0 renal, 65.9 µM; in the assay with MCF7 breast it was above 100 µM.
On to `O=S(O)c1cc(Cl)cc(Cl)c1OCc1ccccc1`, for which the TGI in the assay on M19-MEL melanoma, in the assay on HCC-2998 colon and in the assay on DMS 114 small cell lung was above 100 µM in each case.
Turning to `COc1ccc(C2=NN(C(=O)c3cccnc3)C(O)(c3cc(F)c(Cl)cc3Cl)C2)cc1OC` (stereo not given), the TGI in the assay on BT-549 breast is 41.5 µM; in the assay with MDA-N, 90 µM; in the assay on DU-145 prostate, above 100 µM; in the assay with MDA-MB-231 breast it was 37.9 µM; with 786-0 renal, 62.2 µM.
